Source: patent US8318684B2, “Antibiotics, bispolides A1, A2, and A3 as well as bispolides B1, B2a, B2b and B3 and processes for producing said antibiotics” (Nimura Genetic Solutions Co., Ltd., priority 2006, dated 2012)
In brackets after ≈: the same amount, converted by molar mass.

How the values were obtained:
[1] = Solubility (physicochemical properties)
[2] = system: Bacillus subtilis PCI 219; test: Antibacterial spectrum, standard serial dilution method in liquid medium; assay type: cell-based; settings: PCI219, bacto-yeast nitrogen base-glucose-NZ-amine liquid medium, read-out: Minimum growth inhibitory concentration
Experimental: (§1) The antibacterial spectra of a bispolide A compound and a bispolide B compound were tested on a liquid medium consisting of bacto-yeast nitrogen base (a product of Difco Laboratories)-glucose-NZ-amine by a standard serial dilution method.

[3] = system: MRSA ngs2 (methicillin-resistant strain of Staphylococcus aureus); test: as above; assay type: cell-based; settings: bacto-yeast nitrogen base-glucose-NZ-amine liquid medium, read-out: Minimum growth inhibitory concentration
Experimental: as §1

[4] = system: MRSA ngs1 (methicillin-resistant strain of Staphylococcus aureus); test: as above; assay type: cell-based; settings: bacto-yeast nitrogen base-glucose-NZ-amine liquid medium, read-out: Minimum growth inhibitory concentration
Experimental: as §1

[5] = system: Staphylococcus aureus FDA209P; test: as above; assay type: cell-based; settings: bacto-yeast nitrogen base-glucose-NZ-amine liquid medium, read-out: Minimum growth inhibitory concentration
Experimental: as §1

[6] = in 50% aqueous ethanol (ethanol:water 1:1 by volume)
[7] = in methanol, ethanol, dimethylsulfoxide (DMSO), acetone and ethyl acetate

Question: With CCC1=C\C=C\C(CC)C(C(C)C(O)CC2(O)CC(OC3OC(C)C(O)C(O)C3O)C(CC)C(C)O2)OC(=O)/C=C/C(CC)=C/C=C/C(CC)C(C(C)C(O)CC2(O)CC(OC3CC(O)C(O)C(C)O3)C(CC)C(C)O2)OC(=O)\C=C\1 (stereo not shown) [bispolide B1] as the compound, how does the Solubility [1, 6] read?
Answer: The Solubility was “sparingly soluble”.

Question: What about the Solubility [1, 7] of the same compound?
Answer: Its Solubility is “Soluble well”.

Question: And the Solubility ([1]; in water and n-hexane)?
Answer: The Solubility was “insoluble”.

Question: What about the MIC [2] of the same compound?
Answer: Its MIC is 0.2 mg/L (≈ 0.174 µM).

Question: And the MIC [3]?
Answer: The MIC was ≤ 0.049 mg/L.

Question: What about the MIC [4] of the same compound?
Answer: The MIC was 0.39 mg/L (≈ 0.339 µM).

Question: And the MIC [5]?
Answer: The MIC was 1.56 mg/L (≈ 1.36 µM).

Question: For CCC1=C\C=C\C(CC)C(C(C)C(O)CC2(OC)CC(OC3OC(C)C(O)C(O)C3O)C(CC)C(C)O2)OC(=O)/C=C/C(CC)=C/C=C/C(CC)C(C(C)C(O)CC2(O)CC(OC3CC(O)C(O)C(C)O3)C(CC)C(C)O2)OC(=O)\C=C\1 (stereo not shown) [bispolide B2b], which Solubility [1, 6] is on record?
Answer: Its Solubility is “sparingly soluble”.

Question: What about the Solubility [1, 7] of the same compound?
Answer: The Solubility was “Soluble well”.

Question: And the Solubility ([1]; in water and n-hexane)?
Answer: Its Solubility is “insoluble”.

Question: And the MIC [2]?
Answer: Its MIC is 0.39 mg/L (≈ 0.335 µM).

Question: And the MIC [3]?
Answer: The MIC was 3.13 mg/L (≈ 2.69 µM).

Question: What about the MIC [4] of the same compound?
Answer: The MIC was 1.56 mg/L (≈ 1.34 µM).

Question: And the MIC [5]?
Answer: The MIC was 0.78 mg/L (≈ 0.67 µM).

Question: What does the source list for CCC1=C\C=C\C(CC)C(C(C)C(O)CC2(OC)CC(OC3CC(O)C(O)C(C)O3)C(CC)C(C)O2)OC(=O)/C=C/C(CC)=C/C=C/C(CC)C(C(C)C(O)CC2(OC)CC(OC3CC(O)C(O)C(C)O3)C(CC)C(C)O2)OC(=O)\C=C\1 (stereo not shown) [bispolide A3]?
Answer: Solubility [1, 6]: sparlingly soluble; Solubility [1, 7]: Soluble well; Solubility ([1]; in water and n-hexane): insoluble; MIC [2]: 0.78 mg/L (≈ 0.672 µM); MIC [3]: 3.13 mg/L (≈ 2.69 µM); MIC [4]: 1.56 mg/L (≈ 1.34 µM); MIC [5]: 1.56 mg/L (≈ 1.34 µM)

Question: Which results are given for CCC1=C\C=C\C(CC)C(C(C)C(O)CC2(OC)CC(OC3CC(O)C(O)C(C)O3)C(CC)C(C)O2)OC(=O)/C=C/C(CC)=C/C=C/C(CC)C(C(C)C(O)CC2(O)CC(OC3OC(C)C(O)C(O)C3O)C(CC)C(C)O2)OC(=O)\C=C\1 (stereo not shown) [bispolide B2a]?
Answer: Solubility [1, 6]: sparingly soluble; Solubility [1, 7]: Soluble well; Solubility ([1]; in water and n-hexane): insoluble; MIC [2]: 0.39 mg/L (≈ 0.335 µM); MIC [3]: 1.56 mg/L (≈ 1.34 µM); MIC [4]: 1.56 mg/L (≈ 1.34 µM); MIC [5]: 1.56 mg/L (≈ 1.34 µM)

Question: Which Solubility [1, 6] does the source give for CCC1=C\C=C\C(CC)C(C(C)C(O)CC2(O)CC(OC3CC(O)C(O)C(C)O3)C(CC)C(C)O2)OC(=O)/C=C/C(CC)=C/C=C/C(CC)C(C(C)C(O)CC2(O)CC(OC3CC(O)C(O)C(C)O3)C(CC)C(C)O2)OC(=O)\C=C\1 (stereo not shown) [bispolide A1] here?
Answer: The Solubility was “sparlingly soluble”.

Question: And the Solubility [1, 7]?
Answer: The Solubility was “Soluble well”.

Question: And the Solubility ([1]; in water and n-hexane)?
Answer: Its Solubility is “insoluble”.

Question: And the MIC [2]?
Answer: The MIC was 0.39 mg/L (≈ 0.344 µM).

Question: What about the MIC [3] of the same compound?
Answer: The MIC was ≤ 0.049 mg/L.

Question: What about the MIC [4] of the same compound?
Answer: Its MIC is 12.5 mg/L (≈ 11 µM).

Question: And the MIC [5]?
Answer: Its MIC is 1.56 mg/L (≈ 1.38 µM).

Question: Which Solubility [1, 6] does the source give for CCC1=C\C=C\C(CC)C(C(C)C(O)CC2(OC)CC(OC3OC(C)C(O)C(O)C3O)C(CC)C(C)O2)OC(=O)/C=C/C(CC)=C/C=C/C(CC)C(C(C)C(O)CC2(OC)CC(OC3CC(O)C(O)C(C)O3)C(CC)C(C)O2)OC(=O)\C=C\1 (stereo not shown) [bispolide B3] here?
Answer: Its Solubility is “sparingly soluble”.

Question: What about the Solubility [1, 7] of the same compound?
Answer: Its Solubility is “Soluble well”.

Question: And the Solubility ([1]; in water and n-hexane)?
Answer: Its Solubility is “insoluble”.

Question: And the MIC [2]?
Answer: The MIC was 0.78 mg/L (≈ 0.662 µM).

Question: And the MIC [3]?
Answer: Its MIC is 3.13 mg/L (≈ 2.66 µM).

Question: What about the MIC [4] of the same compound?
Answer: Its MIC is 1.56 mg/L (≈ 1.32 µM).

Question: And the MIC [5]?
Answer: Its MIC is 1.56 mg/L (≈ 1.32 µM).

Question: For CCC1=C\C=C\C(CC)C(C(C)C(O)CC2(OC)CC(OC3CC(O)C(O)C(C)O3)C(CC)C(C)O2)OC(=O)/C=C/C(CC)=C/C=C/C(CC)C(C(C)C(O)CC2(O)CC(OC3CC(O)C(O)C(C)O3)C(CC)C(C)O2)OC(=O)\C=C\1 (stereo not shown) [bispolide A2], which Solubility [1, 6] is on record?
Answer: The Solubility was “sparlingly soluble”.

Question: What about the Solubility [1, 7] of the same compound?
Answer: Its Solubility is “Soluble well”.

Question: What about the Solubility ([1]; in water and n-hexane) of the same compound?
Answer: The Solubility was “insoluble”.

Question: What about the MIC [2] of the same compound?
Answer: The MIC was 0.78 mg/L (≈ 0.68 µM).

Question: What about the MIC [3] of the same compound?
Answer: Its MIC is 3.13 mg/L (≈ 2.73 µM).

Question: And the MIC [4]?
Answer: The MIC was 1.56 mg/L (≈ 1.36 µM).

Question: And the MIC [5]?
Answer: The MIC was 1.56 mg/L (≈ 1.36 µM).
